Measured values reported in patent US20210087217A1, “NUCLEOTIDE HEMI-SULFATE SALT FOR THE TREATMENT OF HEPATITIS C VIRUS” (Atea Pharmaceuticals, Inc., priority 2017, published 2021).
“Also recorded” adds a separate entry of the source. Structures can show the parent of a compound that is named as a salt.

Tests used:
[1] = Stability under refrigerator conditions (5 ± 3° C.) of Compound 2; assay type: physicochemical
Procedure: Three conditions were tested: accelerated stability (40 2° C./75±5% RH) over a 6-month time period, ambient stability (25±2° C./60±5% RH) over a 9-month period, and stability under refrigerator conditions (5 3° C.) over a 9-month time period. The results for accelerated stability, ambient stability, and refrigerator conditions are shown in Table 23, Table 24, and Table 25, respectively.
The only impurities detected even after 9 months were those from related substance 1 and water.

[2] = Heart and liver tissue levels of active triphosphate 4 hours after oral Compound 2, rats; assay type: in vivo, rat; conditions: 4 hours after oral dose of Compound 2
Procedure: High levels of the active TP were measured in the liver of all species tested.

[3] = Plasma profiles of Compound 2 metabolites in rats; conditions: rats, single oral dose of Compound 2
Procedure: The results for a single 500 mg/kg dose in rats is shown in FIG. 17 and the results for a single 30, 100, or 300 mg/kg dose in monkeys is shown in FIG. 18.

[4] = Plasma profiles of Compound 2 metabolites in monkeys; assay type: in vivo, cynomolgus monkeys; conditions: monkeys, single oral 30, 100 or 300 mg/kg Compound 2

CNc1nc(N)nc2c1ncn2[C@@H]1O[C@H](CO[P@@](=O)(N[C@@H](C)C(=O)OC(C)C)Oc2ccccc2)[C@@H](O)[C@@]1(C)F [Compound 2, hemi-sulfate salt of isopropyl((S)-(((2R,3R,4R,5R)-5-(2-amino-6-(methylamino)-9H-purin-9-yl)-4-fluoro-3-hydroxy-4-methyltetrahydrofuran-2-yl)methoxy)(phenoxy)phosphoryl)-L-alaninate]
Total impurities of related substance 1 ([1]; 5° C., after 9 months): 0.01% | Water content ([1]; 5° C., after 9 months): 0.32% | Appearance ([1]; 5 ± 3° C., 0 month): White | Assay ([1]; 5 ± 3° C., 0 month): 98.8% | IR ([1]; 5 ± 3° C., 0 month): correspond | Related Substance 1 Any other single impurity ([1]; 5 ± 3° C., 0 month): 0.01% | Related Substance 1 Total Impurities ([1]; 5 ± 3° C., 0 month): 0.01% | Water ([1]; 5 ± 3° C., 0 month): 0.45% | Appearance ([1]; 5 ± 3° C., 1st month): White | Assay ([1]; 5 ± 3° C., 1st month): 101.1% | Related Substance 1 Any other single impurity ([1]; 5 ± 3° C., 1st month): 0.01% | Related Substance 1 Total Impurities ([1]; 5 ± 3° C., 1st month): 0.01% | Water ([1]; 5 ± 3° C., 1st month): 0.19% | Appearance ([1]; 5 ± 3° C., 3rd month): White | Assay ([1]; 5 ± 3° C., 3rd month): 100.2% | IR ([1]; 5 ± 3° C., 3rd month): correspond | Related Substance 1 Any other single impurity ([1]; 5 ± 3° C., 3rd month): 0.01% | Related Substance 1 Impurity B ([1]; 5 ± 3° C., 3rd month): 0.01% | Related Substance 1 Total Impurities ([1]; 5 ± 3° C., 3rd month): 0.03% | Water ([1]; 5 ± 3° C., 3rd month): 0.32% | Appearance ([1]; 5 ± 3° C., 6th month): White | Assay ([1]; 5 ± 3° C., 6th month): 98.6% | IR ([1]; 5 ± 3° C., 6th month): correspond | Related Substance 1 Any other single impurity ([1]; 5 ± 3° C., 6th month): 0.01% | Related Substance 1 Total Impurities ([1]; 5 ± 3° C., 6th month): 0.03% | Water ([1]; 5 ± 3° C., 6th month): 0.42% | Appearance ([1]; 5 ± 3° C., 9th month): Off-white | Assay ([1]; 5 ± 3° C., 9th month): 101.4% | IR ([1]; 5 ± 3° C., 9th month): correspond | Related Substance 1 Any other single impurity ([1]; 5 ± 3° C., 9th month): 0.01% | Related Substance 1 Total Impurities ([1]; 5 ± 3° C., 9th month): 0.01% | Water ([1]; 5 ± 3° C., 9th month): 0.32% | Stability ([1]; refrigerator conditions (5° C.), 9 months): very chemically stable; also recorded: stable | Active TP (metabolite 1-6) level in heart [2]: unquantifiable levels | Active TP (metabolite 1-6) level in liver [2]: High levels | Plasma levels of parent nucleotide prodrug [3]: very low plasma levels | Dose proportionality of metabolite 1-7 exposures [4]: somewhat less than dose-proportional | Dose proportionality of plasma exposures (AUC) of Compound 1 [4]: roughly dose-proportional
